Assay results taken from paper PMC3013379 (Bioorganic & Medicinal Chemistry Letters, 2011).

What was measured:
[1] = tested on: NF-κB activation induced by TNF-α in HEK293 cells (293/NFκB-luc); format: cell-based; settings: HEK293 NF-κB luciferase reporter cells, 2 ng/ml TNF-α for 6 h
[2] = molecular target: T1, human recombinant IKK-β (Homo sapiens, UniProt O14920); experiment: ELISA-based; format: biochemical
T1 sequence (O14920 1-756): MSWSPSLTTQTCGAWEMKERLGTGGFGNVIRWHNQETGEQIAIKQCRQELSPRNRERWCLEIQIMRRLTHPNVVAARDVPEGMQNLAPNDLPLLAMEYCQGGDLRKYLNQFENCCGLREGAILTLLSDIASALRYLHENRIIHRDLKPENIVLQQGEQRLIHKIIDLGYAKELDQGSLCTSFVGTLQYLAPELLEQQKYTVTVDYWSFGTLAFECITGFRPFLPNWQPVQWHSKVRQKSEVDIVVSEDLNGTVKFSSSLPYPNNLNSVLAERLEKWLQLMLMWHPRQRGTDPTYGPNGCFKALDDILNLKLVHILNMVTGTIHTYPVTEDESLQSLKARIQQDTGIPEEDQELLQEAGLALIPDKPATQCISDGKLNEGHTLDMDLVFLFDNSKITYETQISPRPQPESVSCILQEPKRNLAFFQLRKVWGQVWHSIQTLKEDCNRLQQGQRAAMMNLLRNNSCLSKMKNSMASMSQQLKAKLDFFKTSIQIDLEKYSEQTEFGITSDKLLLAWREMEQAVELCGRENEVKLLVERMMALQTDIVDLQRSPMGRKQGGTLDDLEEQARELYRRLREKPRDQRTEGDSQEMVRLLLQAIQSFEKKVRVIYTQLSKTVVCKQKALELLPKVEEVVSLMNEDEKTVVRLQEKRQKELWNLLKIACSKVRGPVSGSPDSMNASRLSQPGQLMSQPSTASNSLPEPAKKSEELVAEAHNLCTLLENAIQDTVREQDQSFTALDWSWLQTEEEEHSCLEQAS

Row | IC50 [2] [µM] | SMILES | Effect on TNF-α-induced luciferase activity (in words) [1]
1 | 6.95 ± 0.55 | O=C(OCCC12CC3CC(CC(C3)C1)C2)c1ccc(NCc2cc(O)ccc2O)cc1 [Compound 8, 2-(1-adamantyl)ethyl 4-[(2,5-dihydroxyphenyl)methylamino]benzoate] | inhibited TNF-α-induced luciferase activity dose-dependently
2 | – | NC(=O)Nc1sc(-c2ccc(F)cc2)cc1C(N)=O [IKK-β inhibitor IV, reference compound] | inhibited TNF-α-induced luciferase activity dose-dependently
